The values below come from ChEMBL document CHEMBL1130717, “Tricyclic ureas: a new class of HIV-1 protease inhibitors” (Bioorg Med Chem Lett, 1998).

The test addresses Human immunodeficiency virus type 1 protease (Human immunodeficiency virus 1, UniProt Q72874). Briefly: Compound was tested for the inhibition of HIV-1 protease by assaying the cleavage of a fluorescent peptide using HPLC.

`O=C1N(Cc2ccccc2)[C@H](Cc2ccccc2)[C@H](O)[C@H](O)[C@]23CC[C@H](CC2)N13` yielded a Ki of 2400 nM.
The molecule `O=C1N[C@H](Cc2ccccc2)[C@@H](O)[C@H](O)[C@]23CC[C@H](CC2)N13` had an inhibition constant (Ki) of 21000 nM.
`O=C1N(Cc2ccc3[nH]ncc3c2)[C@H](Cc2ccccc2)[C@H](O)[C@H](O)[C@]23CC[C@H]([C@H](OCc4ccccc4)C2)N13` gave an inhibition constant (Ki) of 9 nM.
In the case of `O=C1N(Cc2ccc3[nH]ncc3c2)[C@H](Cc2ccccc2)[C@H](O)[C@H](O)[C@]23CC[C@H](CC2)N13`, the affinity corresponds to a Ki of 2300 nM.
The value for `O=C1N(Cc2ccccc2)[C@H](Cc2ccccc2)[C@@H](O)[C@H](O)[C@]23CC[C@H](CC2)N13` was 6300 nM.
As for `O=C1N(Cc2ccccc2)[C@H](Cc2ccccc2)[C@H](O)[C@H](O)[C@]23CC[C@H]([C@H](OCc4ccccc4)C2)N13`, the figure is 750 nM.
